Results from patent US10828301B2, “2,4-pyrimidinediamine compounds and their uses” (Rigel Pharmaceuticals, Inc, priority 2002, dated 2020).
Read-outs that look alike come from different tables or passages of the source.

Assays:
Type in all cases: cell-based
[1] = tested on: cultured human mast cells (CHMC); test: CHMC low cell density IgE activation: tryptase and LTC4 assays; settings: Homo sapiens, Mast cell, Low Density CHMC, anti-IgE activation
How it was run: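 Degranulation measured after 30 min anti-IgE challenge at 37° C of CHMC plated at 1000-1500 cells/well following 1 h preincubation. Readouts: LTC4 by ELISA on donor-specific diluted supernatants, and tryptase activity from a 30 min room-temperature substrate reaction.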

[2] = tested on: bone marrow derived mast cells (BMMC); test: BMMC high cell density IgE activation: degranulation (hexosiminidase, histamine), leukotriene (LTC4) and cytokine (TNFalpha, IL-6) assays; settings: Mus musculus, anti-IgE activation
Description: After sensitizing, cells are counted, pelleted (1000 rpm, 5-10 minutes), and resuspended at 1-3×10^6 cells/ml in MT buffer. Add 100 ul of cell suspension to each well and 100 ul of compound dilutions. The final vehicle concentration is 0.5% DMSO. Incubate at 37° C. (5% CO2) for 1 hour. After 1 hour of compound treatment, stimulate cells with 6× stimulus (60 ng/ml DNP-BSA). Mix wells with the cells and allow plates to incubate at 37° C. (5% CO2) for one hour. After 1 hour incubation, pellet cells (10 minutes, 1000 RPM) and collect 200 ul per well of the supernatant, being careful not to disturb pellet, and transfer to a clean tube or 96-well plate. Place the supernatant plate on ice. During the 4-5 hour step (see next) perform the hexosiminidase assay. Resuspend cell pellet in 240 ul WEI-conditioned media containing 0.5% DMSO and corresponding concentration of compound. Incubate BMMC cells for 4-5 hours at 37° C. (5% CO2). After incubation, pellet cells (1000 RPM, 10 minutes) and collect 225 ul per well and place in −80° C. until ready to perform ELISAS. ELISAS are performed on appropriately diluted samples (determined empirically for each donor cell population so that the sample measurement falls within the standard curve) following the supplier's instructions.
Add 50 uL of BMMC cell supernatant (see above) to the hexoseaminidase substrate, place at 37° C. for 30 minutes and read the plate at 5, 10, 15, and 30 minutes on a spectrophotometer.

[3] = tested on: ionophore-induced degranulation of mast and/or basophil cells; test: Ionophore (ionomycin or A23187)-induced degranulation counter screen; settings: high density BMMC, ionomycin activation, hexosaminidase release, read-out: BMMC Ionomycin Hexos. IC50
Excerpt: In addition to the FcεRI or FcγRI degranulation pathways discussed above, degranulation of mast and/or basophil cells can be induced by other agents. For example, ionomycin, a calcium ionophore that bypasses the early FcεRI or FcγRI signal transduction machinery of the cell, directly induces a calcium flux that triggers degranulation. Referring again to FIG. 2, activated PLCγ initiates pathways that lead to, among other things, calcium ion mobilization and subsequent degranulation. As illustrated, this Ca^2+ mobilization is triggered late in the FcεRI signal transduction pathway. […] Other ionophores that induce degranulation in this manner include A23187. The ability of granulation-inducing ionophores such as ionomycin to bypass the early stages of the FcεRI and/or FcγRI signaling cascades may be used as a counter screen to identify active compounds of the invention that specifically exert their degranulation-inhibitory activity by blocking or inhibiting the early FcεRI or FcγRI signaling cascades, as discussed above.
Assays suitable for determining the IC50 of ionophore-induced degranulation include any of the previously-described degranulation assays, with the modification that the cells are stimulated or activated with a degranulation-inducing calcium ionophore such as ionomycin or A23187 (A.G. Scientific, San Diego, Calif.) instead of anti-IgE antibodies or an IgE-specific allergen. Specific assays for assessing the ability of a particular 2,4-pyrimidinediamine compound of the invention to inhibit ionophore-induced degranulation are provided in the Examples section.

[4] = tested on: cultured human mast cells (CHMC); test: CHMC low cell density ionomycin activation: tryptase assay; settings: Homo sapiens, Mast cell, Low Density CHMC, ionomycin activation, tryptase readout; read-out: CHMC Ionomycin Tryptase
[5] = tested on: cultured human mast cells (CHMC); test: CHMC high cell density IgE activation: degranulation (hexos, tryptase, histamine), leukotriene (LTC4) and cytokine (TNFalpha, IL-13) assays; settings: anti-IgE activation
Description: After sensitizing, cells are counted, pelleted (1000 rpm, 5-10 minutes), and resuspended at 1-2×10^6 cells/ml in MT buffer. Add 100 ul of cell suspension to each well and 100 ul of compound dilutions. The final vehicle concentration is 0.5% DMSO. Incubate at 37° C. (5% CO2) for 1 hour. After 1 hour of compound treatment, stimulate cells with 6× anti-IgE. Mix wells with the cells and allow plates to incubate at 37° C. (5% CO2) for one hour. After 1 hour incubation, pellet cells (10 minutes, 1000 RPM) and collect 200 ul per well of the supernatant, being careful not to disturb pellet. Place the supernatant plate on ice. During the 7-hour step (see next) perform tryptase assay on supernatant that had been diluted 1:500. Resuspend cell pellet in 240 ul of CM media containing 0.5% DMSO and corresponding concentration of compound. Incubate CHMC cells for 7 hours at 37° C. (5% CO2). After incubation, pellet cells (1000 RPM, 10 minutes) and collect 225 ul per well and place in −80° C. until ready to perform ELISAS. ELISAS are performed on appropriately diluted samples (determined empirically for each donor cell population so that the sample measurement falls within the standard curve) following the supplier's instructions.

[6] = hexosaminidase readout, read-out: CHMC anti-IgE Hexos.
[7] = hexosaminidase release, read-out: BMMC anti-IgE hexos IC50
[8] = tryptase readout, read-out: CHMC anti-IgE Tryptase
[9] = IL-6 release, read-out: BMMC anti-IgE IL-6 IC50
[10] = LTC4 release, read-out: BMMC anti-IgE LTC4 IC50
[11] = TNF-alpha release, read-out: BMMC anti-IgE TNF-alpha IC50
[12] = histamine release, read-out: BMMC anti-IgE histamine IC50

SMILES	IC50 [1, 6] [µM]	IC50 [2, 7] [µM]	IC50 ([3]; Mus musculus) [µM]	also measured
CCOc1ccc(Nc2cc(Cl)nc(Nc3ccc(OCC)cc3)n2)cc1 [Compound R926072, N2,N4-Bis(4-ethoxyphenyl)-6-chloro-2,4-pyrimidinediamine]	> 10	> 10	> 10	–
Fc1cnc(Nc2ccc(N3CCOCC3)cc2)nc1Nc1ccc(N2CCOCC2)cc1 [Compound R926114, N2,N4-Bis[4-(N-morpholino)phenyl]-5-fluoro-2,4-pyrimidinediamine]	–	–	–	IC50 [3]: > 10 µM
CCOC(=O)c1cccc(Nc2ncc(F)c(Nc3cccc(C(=O)OCC)c3)n2)c1 [Compound R926228, N2,N4-Bis(3-ethoxycarbonylphenyl)-5-fluoro-2,4-pyrimidinediamine]	> 10	> 10	–	–
Fc1ccc(Nc2ncc(F)c(Nc3ccc(F)c(Cl)c3)n2)cc1Cl [Compound R926223, N2,N4-Bis(3-chloro-4-fluorophenyl)-5-fluoro-2,4-pyrimidinediamine]	> 10	> 10	> 10	–
CCOc1ccc(Nc2ncc(C)c(Nc3ccc(OCC)cc3)n2)cc1 [Compound R926068, N2,N4-Bis(4-ethoxyphenyl)-5-methyl-2,4-pyrimidinediamine]	> 10	7.4	8.2	–
Fc1ccc(Nc2ncc(F)c(Nc3ccc4c(c3)OCCO4)n2)cc1Cl [Compound R926218, N2-(3-Chloro-4-fluorophenyl)-N4-(3,4-ethylenedioxyphenyl)-5-fluoro-2,4-pyrimidinediamine]	> 10	> 10	> 10	–
COc1cccc(Nc2ncc(F)c(Nc3cccc(OC)c3)n2)c1 [Compound R926065, N2,N4-Bis(3-methoxyphenyl)-5-fluoro-2,4-pyrimidinediamine]	3.5	> 10	> 10	–
CCOc1cccc(Nc2ncc(F)c(Nc3cccc(OCC)c3)n2)c1 [Compound R926064, N2,N4-Bis(3-ethoxyphenyl)-5-fluoro-2,4-pyrimidinediamine]	6.2	5.9	7.3	–
Nc1cc(Cl)cc(Nc2ncc(F)c(Nc3cc(N)cc(Cl)c3)n2)c1 [Compound R950141, N2,N4-Bis(3-amino-5-chlorophenyl)-5-fluoro-2,4-pyrimidinediamine]	–	–	–	IC50 [4]: > 10 µM; IC50 [1, 8]: 0.31 µM; IC50 ([5]; IL-13, read-out: CHMC high density IL-13): 0.798 µM; IC50 ([5]; LTC4, read-out: CHMC high density LTC4): 0.201 µM; IC50 ([5]; TNF-alpha, read-out: CHMC high density TNF-alpha): 1.06 µM; IC50 ([5]; hexosaminidase release, read-out: CHMC high density hexos): 0.567 µM; IC50 ([5]; histamine release, read-out: CHMC high density histamine): 0.627 µM; IC50 ([5]; tryptase release, read-out: CHMC high density tryptase): 0.618 µM
Fc1cccc(Nc2ncc(F)c(Nc3ccc4c(c3)OCCO4)n2)c1 [Compound R926221, N4-(3,4-Ethylenedioxyphenyl)-N2-(3-fluorophenyl)-5-fluoro-2,4-pyrimidinediamine]	8.5	9.9	> 10	–
Cc1ccc(Nc2ncc(F)c(Nc3ccc(C)cc3)n2)cc1 [Compound R926225, N2,N4-Bis(4-methylphenyl)-5-fluoro-2,4-pyrimidinediamine]	> 10	> 10	> 10	–

More lines, main results first:

IC50 [1, 6] [µM]	IC50 [2, 7] [µM]	SMILES	IC50 ([3]; Mus musculus) [µM]	also measured
> 10	> 10	Fc1ccc(Nc2ncc(F)c(Nc3ccc(F)cc3)n2)cc1 [Compound R926224, N2,N4-Bis(4-fluorophenyl)-5-fluoro-2,4-pyrimidinediamine]	> 10	–
–	< 0.056	OCc1cc2cc(Nc3ncc(F)c(Nc4cccc(O)c4)n3)ccc2o1 [Compound R926707, 5-Fluoro-N2-[2-(hydroxymethyl)benzofuran-5-yl]-N4-(3-hydroxyphenyl)-2,4-pyrimidinediamine]	–	IC50 [4]: > 10 µM; IC50 [1, 8]: 0.214 µM; IC50 [2, 9]: < 0.056 µM; IC50 [2, 10]: 0.39 µM; IC50 [2, 11]: 0.088 µM; IC50 [2, 12]: < 0.056 µM
–	< 0.22	O=C(NCCO)c1cc2cc(Nc3ncc(F)c(Nc4ccc5c(c4)OCCO5)n3)ccc2o1 [Compound R926498, N4-(3,4-Ethylenedioxyphenyl)-5-fluoro-N2-[2-(N-2-hydroxyethylamino)carbonylbenzofuran-5-yl]-2,4-pyrimidinediamine]	–	IC50 [4]: > 10 µM; IC50 [1, 8]: 0.209 µM; IC50 [2, 9]: < 0.22 µM; IC50 [2, 10]: 0.995 µM; IC50 [2, 11]: 0.614 µM; IC50 [2, 12]: 0.515 µM
–	1.9	CCc1ccc(Nc2ncc(F)c(Nc3ccc4c(c3)OCCO4)n2)cc1 [Compound R926237, N4-(3,4-Ethylenedioxyphenyl)-N2-(4-ethylphenyl)-5-fluoro-2,4-pyrimidinediamine]	–	IC50 [4]: 6.2 µM; IC50 [1, 8]: 1.21 µM
–	< 0.22	CC(C)Oc1ccc(Nc2nc(Nc3ccc(OCCO)cc3)ncc2F)cc1 [Compound R935160, 5-Fluoro-N2-[4-(2-hydroxyethoxy)phenyl]-N4-(4-isopropoxyphenyl)-2,4-pyrimidinediamine]	–	IC50 [4]: > 10 µM; IC50 [1, 8]: 0.202 µM; IC50 [2, 9]: < 0.22 µM; IC50 [2, 10]: 0.876 µM; IC50 [2, 11]: 0.484 µM; IC50 [2, 12]: 0.317 µM
–	< 0.22	O=C1COc2ccc(Nc3ncc(F)c(Nc4cccc(O)c4)n3)cc2N1 [Compound R909238, N2-(1,4-Benzoxazin-3-on-6-yl)-5-fluoro-N4-(3-hydroxyphenyl)-2,4-pyrimidinediamine]	–	IC50 [2, 9]: < 0.22 µM; IC50 [2, 10]: 0.521 µM; IC50 [2, 11]: 0.432 µM; IC50 [2, 12]: < 0.22 µM
9.1	4.5	CCOc1ccc(Nc2ccnc(Nc3ccc(OCC)cc3)n2)cc1 [Compound R926069, N2,N4-Bis(4-ethoxyphenyl)-2,4-pyrimidinediamine]	4.4	–
> 10	> 10	Fc1ccc(Nc2ncc(F)c(Nc3ccc4c(c3)OCCO4)n2)cc1 [Compound R926220, N4-(3,4-Ethylenedioxyphenyl)-N2-(4-fluorophenyl)-5-fluoro-2,4-pyrimidinediamine]	> 10	–
> 10	> 10	CCc1ccc(Nc2ncc(F)c(Nc3ccc(CC)cc3)n2)cc1 [Compound R926234, N2,N4-Bis(4-ethylphenyl)-5-fluoro-2,4-pyrimidinediamine]	–	–
